Measurements: US20240051997A1, “SAP AND PEPTIDOMIMETIC COMPOSITIONS FOR REDUCING SYMPTOMS OF INFLAMMATION” (Arch Biosurgery, Inc., priority 2018, published 2024)
Entries after “also recorded” stand apart in the source; their conditions may differ.

Assays:
Human THP-1 cells [1] = experiment: Cytokine release by THP-1 cells exposed to LPS/RADA-16 mixture; assay type: cell-based; conditions: LPS 1 μg/ml added to 1, 10 or 100 μg/well peptide, then to THP-1 cells
Procedure: (§1) The anti-inflammatory effect of a SAP was examined using an in vitro assay to assess cytokine release by human THP-1 cells in the presence of SAP. Measurement of THP-1 cell activation in response to antigen was assessed by cytokine release.
(§2) To assess cytokine release upon THP-1 cell activation, lipopolysaccharides (LPS) from Salmonella typhimurium (catalog no. L-7261; Sigma-Aldrich, St. Louis, MO) were added to THP-1 cells, at a concentration of 1 μg/ml.
To determine the effects of exposing THP-1 cells to RADA-16 (SEQ ID NO: 1) upon cytokine release, LPS was added to each of the 1 μg/well, 10 μg/well, or 100 μg/well RADA-16 samples, and then added to THP-1 cells.
(§3) The release of cytokines in response to exposure of THP-1 cells to RADA-16 (SEQ ID NO: 1) or LPS was measured using the PROTEOME PROFILER™ Array kit, commercially available as a test strip kit for detection of cytokines in solution (R&D Systems, Inc., Catalog Number ARY005). The assay was carried out according to the manufacturer's guide lines.

Human THP-1 cells [2] = experiment: Cytokine release by THP-1 cells stimulated with RADA-16 or LPS (PROTEOME PROFILER Array); assay type: cell-based
Procedure: as §1
Human THP-1 cells in culture media (1×10^6 cells in 1 ml of Culture medium) were exposed to the self-assembling peptide RADARADARADARADA (“RADA-16”; SEQ ID NO: 1), at a concentration of 1 μg/well, 10 μg/well, or 100 μg/well.
Human THP-1 cells in the absence of RADA-16 were used as a control to assess the baseline level of cytokine production in “resting” non-actived THP-1 cells.
as §2, §3

RADARADARADARADA [RADA-16, self-assembling peptide]
cytokine release upon LPS exposure (C5a, TNFSF2, IL-6, IL-8/CXCL8, MCP-1/CCL2, MIP-1/CCL3, MIP-1/CCL4, IL-1/IL1-F2) (Human THP-1 cells [1]): reduced levels of cytokine release; also recorded: prevented or reduced the release of cytokines | C5a (Complement Component 5a) release (Human THP-1 cells [2]; 1 mcg (1 μg/well) RADA-16): 0 | CD40 Ligand (CD154) release (Human THP-1 cells [2]; 1 mcg (1 μg/well) RADA-16): 0 | G-CSF (CSF −, CSF-3) release (Human THP-1 cells [2]; 1 mcg (1 μg/well) RADA-16): 0 | GM-CSF (CSF |, CSF-2) release (Human THP-1 cells [2]; 1 mcg (1 μg/well) RADA-16): 0 | GRO | (CXCL1) release (Human THP-1 cells [2]; 1 mcg (1 μg/well) RADA-16): 0 | I-309 (CCL1) release (Human THP-1 cells [2]; 1 mcg (1 μg/well) RADA-16): 0 | I-TAC (CXCL11) release (Human THP-1 cells [2]; 1 mcg (1 μg/well) RADA-16): 0 | IFN-• (Type II IFN) release (Human THP-1 cells [2]; 1 mcg (1 μg/well) RADA-16): 0 | IL-1 alpha (IL-1F1) release (Human THP-1 cells [2]; 1 mcg (1 μg/well) RADA-16): 0 | IL-1 beta (IL-1F2) release (Human THP-1 cells [2]; 1 mcg (1 μg/well) RADA-16): 0 | IL-1ra (IL-1F3) release (Human THP-1 cells [2]; 1 mcg (1 μg/well) RADA-16): 22.59 | IL-2 release (Human THP-1 cells [2]; 1 mcg (1 μg/well) RADA-16): 0 | IL-4 release (Human THP-1 cells [2]; 1 mcg (1 μg/well) RADA-16): 0 | IL-5 release (Human THP-1 cells [2]; 1 mcg (1 μg/well) RADA-16): 0 | IL-6 release (Human THP-1 cells [2]; 1 mcg (1 μg/well) RADA-16): 0 | IL-8 (CXCL8) release (Human THP-1 cells [2]; 1 mcg (1 μg/well) RADA-16): 0 | IL-10 release (Human THP-1 cells [2]; 1 mcg (1 μg/well) RADA-16): 0 | IL-12 p 70 release (Human THP-1 cells [2]; 1 mcg (1 μg/well) RADA-16): 0 | IL-13 release (Human THP-1 cells [2]; 1 mcg (1 μg/well) RADA-16): 0 | IL-16 (LCF) release (Human THP-1 cells [2]; 1 mcg (1 μg/well) RADA-16): 0 | IL-17E release (Human THP-1 cells [2]; 1 mcg (1 μg/well) RADA-16): 0 | IL-17 release (Human THP-1 cells [2]; 1 mcg (1 μg/well) RADA-16): 0 | IL-23 release (Human THP-1 cells [2]; 1 mcg (1 μg/well) RADA-16): 0 | IL-27 release (Human THP-1 cells [2]; 1 mcg (1 μg/well) RADA-16): 0 | IL-32 release (Human THP-1 cells [2]; 1 mcg (1 μg/well) RADA-16): 0 | IP-10 (CXCL10) release (Human THP-1 cells [2]; 1 mcg (1 μg/well) RADA-16): 0 | MCP-1 (CCL2) release (Human THP-1 cells [2]; 1 mcg (1 μg/well) RADA-16): 0 | MIP-1 | (CCL3) release (Human THP-1 cells [2]; 1 mcg (1 μg/well) RADA-16): 0 | MIP-1− (CCL4) release (Human THP-1 cells [2]; 1 mcg (1 μg/well) RADA-16): 0 | SDF-1 (CXCL12) release (Human THP-1 cells [2]; 1 mcg (1 μg/well) RADA-16): 0 | TNF- | (TNFSF2) release (Human THP-1 cells [2]; 1 mcg (1 μg/well) RADA-16): 0 | sICAM-1 (CD54) release (Human THP-1 cells [2]; 1 mcg (1 μg/well) RADA-16): 0 | sTREM-1 release (Human THP-1 cells [2]; 1 mcg (1 μg/well) RADA-16): 0 | C5a (Complement Component 5a) release (Human THP-1 cells [2]; 10 mcg (10 μg/well) RADA-16): 0 | CD40 Ligand (CD154) release (Human THP-1 cells [2]; 10 mcg (10 μg/well) RADA-16): 0 | G-CSF (CSF −, CSF-3) release (Human THP-1 cells [2]; 10 mcg (10 μg/well) RADA-16): 0 | GM-CSF (CSF |, CSF-2) release (Human THP-1 cells [2]; 10 mcg (10 μg/well) RADA-16): 0 | GRO | (CXCL1) release (Human THP-1 cells [2]; 10 mcg (10 μg/well) RADA-16): 0 | I-309 (CCL1) release (Human THP-1 cells [2]; 10 mcg (10 μg/well) RADA-16): 0 | I-TAC (CXCL11) release (Human THP-1 cells [2]; 10 mcg (10 μg/well) RADA-16): 0 | IFN-• (Type II IFN) release (Human THP-1 cells [2]; 10 mcg (10 μg/well) RADA-16): 0 | IL-1 alpha (IL-1F1) release (Human THP-1 cells [2]; 10 mcg (10 μg/well) RADA-16): 0 | IL-1 beta (IL-1F2) release (Human THP-1 cells [2]; 10 mcg (10 μg/well) RADA-16): 0 | IL-1ra (IL-1F3) release (Human THP-1 cells [2]; 10 mcg (10 μg/well) RADA-16): 0 | IL-2 release (Human THP-1 cells [2]; 10 mcg (10 μg/well) RADA-16): 0 | IL-4 release (Human THP-1 cells [2]; 10 mcg (10 μg/well) RADA-16): 0 | IL-5 release (Human THP-1 cells [2]; 10 mcg (10 μg/well) RADA-16): 0 | IL-6 release (Human THP-1 cells [2]; 10 mcg (10 μg/well) RADA-16): 0 | IL-8 (CXCL8) release (Human THP-1 cells [2]; 10 mcg (10 μg/well) RADA-16): 0 | IL-10 release (Human THP-1 cells [2]; 10 mcg (10 μg/well) RADA-16): 0 | IL-12 p 70 release (Human THP-1 cells [2]; 10 mcg (10 μg/well) RADA-16): 0 | IL-13 release (Human THP-1 cells [2]; 10 mcg (10 μg/well) RADA-16): 0 | IL-16 (LCF) release (Human THP-1 cells [2]; 10 mcg (10 μg/well) RADA-16): 0 | IL-17E release (Human THP-1 cells [2]; 10 mcg (10 μg/well) RADA-16): 0 | IL-17 release (Human THP-1 cells [2]; 10 mcg (10 μg/well) RADA-16): 0 | IL-23 release (Human THP-1 cells [2]; 10 mcg (10 μg/well) RADA-16): 0 | IL-27 release (Human THP-1 cells [2]; 10 mcg (10 μg/well) RADA-16): 0 | IL-32 release (Human THP-1 cells [2]; 10 mcg (10 μg/well) RADA-16): 0 | IP-10 (CXCL10) release (Human THP-1 cells [2]; 10 mcg (10 μg/well) RADA-16): 0 | MCP-1 (CCL2) release (Human THP-1 cells [2]; 10 mcg (10 μg/well) RADA-16): 0 | MIP-1 | (CCL3) release (Human THP-1 cells [2]; 10 mcg (10 μg/well) RADA-16): 0 | MIP-1− (CCL4) release (Human THP-1 cells [2]; 10 mcg (10 μg/well) RADA-16): 0 | SDF-1 (CXCL12) release (Human THP-1 cells [2]; 10 mcg (10 μg/well) RADA-16): 0 | TNF- | (TNFSF2) release (Human THP-1 cells [2]; 10 mcg (10 μg/well) RADA-16): 0 | sICAM-1 (CD54) release (Human THP-1 cells [2]; 10 mcg (10 μg/well) RADA-16): 0 | sTREM-1 release (Human THP-1 cells [2]; 10 mcg (10 μg/well) RADA-16): 0 | C5a (Complement Component 5a) release (Human THP-1 cells [2]; 100 mcg (100 μg/well) RADA-16): 0 | CD40 Ligand (CD154) release (Human THP-1 cells [2]; 100 mcg (100 μg/well) RADA-16): 0 | G-CSF (CSF −, CSF-3) release (Human THP-1 cells [2]; 100 mcg (100 μg/well) RADA-16): 0 | GM-CSF (CSF |, CSF-2) release (Human THP-1 cells [2]; 100 mcg (100 μg/well) RADA-16): 0 | GRO | (CXCL1) release (Human THP-1 cells [2]; 100 mcg (100 μg/well) RADA-16): 0 | I-309 (CCL1) release (Human THP-1 cells [2]; 100 mcg (100 μg/well) RADA-16): 0 | I-TAC (CXCL11) release (Human THP-1 cells [2]; 100 mcg (100 μg/well) RADA-16): 0 | IFN-• (Type II IFN) release (Human THP-1 cells [2]; 100 mcg (100 μg/well) RADA-16): 0 | IL-1 alpha (IL-1F1) release (Human THP-1 cells [2]; 100 mcg (100 μg/well) RADA-16): 0 | IL-1 beta (IL-1F2) release (Human THP-1 cells [2]; 100 mcg (100 μg/well) RADA-16): 0 | IL-1ra (IL-1F3) release (Human THP-1 cells [2]; 100 mcg (100 μg/well) RADA-16): 0 | IL-2 release (Human THP-1 cells [2]; 100 mcg (100 μg/well) RADA-16): 0 | IL-4 release (Human THP-1 cells [2]; 100 mcg (100 μg/well) RADA-16): 0 | IL-5 release (Human THP-1 cells [2]; 100 mcg (100 μg/well) RADA-16): 0 | IL-6 release (Human THP-1 cells [2]; 100 mcg (100 μg/well) RADA-16): 0 | IL-8 (CXCL8) release (Human THP-1 cells [2]; 100 mcg (100 μg/well) RADA-16): 0 | IL-10 release (Human THP-1 cells [2]; 100 mcg (100 μg/well) RADA-16): 0 | IL-12 p 70 release (Human THP-1 cells [2]; 100 mcg (100 μg/well) RADA-16): 0 | IL-13 release (Human THP-1 cells [2]; 100 mcg (100 μg/well) RADA-16): 0 | IL-16 (LCF) release (Human THP-1 cells [2]; 100 mcg (100 μg/well) RADA-16): 0 | IL-17E release (Human THP-1 cells [2]; 100 mcg (100 μg/well) RADA-16): 0 | IL-17 release (Human THP-1 cells [2]; 100 mcg (100 μg/well) RADA-16): 0 | IL-23 release (Human THP-1 cells [2]; 100 mcg (100 μg/well) RADA-16): 0 | IL-27 release (Human THP-1 cells [2]; 100 mcg (100 μg/well) RADA-16): 0 | IL-32 release (Human THP-1 cells [2]; 100 mcg (100 μg/well) RADA-16): 0 | IP-10 (CXCL10) release (Human THP-1 cells [2]; 100 mcg (100 μg/well) RADA-16): 0 | MCP-1 (CCL2) release (Human THP-1 cells [2]; 100 mcg (100 μg/well) RADA-16): 0 | MIP-1 | (CCL3) release (Human THP-1 cells [2]; 100 mcg (100 μg/well) RADA-16): 0 | MIP-1− (CCL4) release (Human THP-1 cells [2]; 100 mcg (100 μg/well) RADA-16): 0 | SDF-1 (CXCL12) release (Human THP-1 cells [2]; 100 mcg (100 μg/well) RADA-16): 0 | TNF- | (TNFSF2) release (Human THP-1 cells [2]; 100 mcg (100 μg/well) RADA-16): 0 | sICAM-1 (CD54) release (Human THP-1 cells [2]; 100 mcg (100 μg/well) RADA-16): 0 | sTREM-1 release (Human THP-1 cells [2]; 100 mcg (100 μg/well) RADA-16): 0 | induction of cytokine release relative to baseline (Human THP-1 cells [2]; resting THP-1 cells, 1, 10 or 100 μg/well, no LPS): did not induce cytokine release beyond baseline levels
